Entries after “also recorded” stand apart in the source; their conditions may differ. Structures can show the parent of a compound that is named as a salt.
Test system: autophagy flux (LC3-II) in HepG2 cell line
Experiment: Autophagy flux, LC3-II immunoblot with/without Bafilomycin, HepG2 cell line
Type: cell-based
Details: 4 hours and 24 hours of treatment
Experimental: Since compound 2-3 induced an inhibition of the proteolytic activity of cathepsins B, D and/or L (see example 1) supporting an inhibition of some lysosomal functions which can affect the cellular autophagy flux, the capacity of compound 2-3 to modulate the cellular autophagy processes and functions was evaluated in two Hepatocellular carcinoma (HCC) cell lines: Huh7 and HepG2. For this purpose, the accumulation of LC3-II (Light Chain 3 phosphatidylethanolamine conjugate) in presence or absence of compound 2-3 was analyzed using immunoblot analysis of LC3-II.
The HepG2 cell line was maintained in DMEM low glucose (Cat #21885025, ThermoFischer) containing 1% penicillin-streptomycin (Cat #P06-07100, Dutscher) and 10% FBS (Cat #SV30160.03C, Dutscher). The Huh7 cell line was maintained in DMEM high glucose (Cat #L0103-500, Dutscher) containing 1% penicillin-streptomycin (Cat #P06-07100, Dutscher) and 10% SVF (Cat #SV30160.03C, Dutscher). Cells lines were cultured at 37° C. with 5% CO2.
The day before the experiment, 6-well plates with 250,000 cells for HepG2 and 310,000 cells for Huh7 in 1.8 mL of medium per well were prepared. […]
After 4 hours and 24 hours of cells treatment, the medium was removed from each well. […] Total protein concentration was assessed using the BCA reagent (Cat #23227, ThermoFischer) and cellular lysates were stored at −80° C. until western-blot analysis. […]

CC(C)(C)NC1CCN(c2cc(NCc3ccc(Cl)cc3)nc3ccccc23)CC1 [2-3, 2-(4-chlorobenzylamino)-4-(4-tert-butylaminopiperidin-1-yl)-quinoline Hydrochloride Salt]
accumulation of the LC3-II form: significantly induced, in a dose-dependent manner, an accumulation of the LC3-II form | autophagy flux (LC3-II Baf+/Baf− ratio) (Hydrochloride Salt): inhibition; also recorded: inhibitor of the autophagy flux

From patent US11261189B2, “Substituted 2,4 diamino-quinoline as new medicament for fibrosis, autophagy and cathepsins B (CTSB), L (CTSL) and D (CTSD) related diseases” (Genoscience Pharma, priority 2018, dated 2022)
